Reference: the NIST ThermoML archive (doi:10.1021/je300517q)
± gives the expanded uncertainty stated by the source.

Tests used:
[1] = Crystal; DTA
[2] = Molar enthalpy of transition or fusion; details: Crystal; DSC

- Normal melting temperature [1]: 169.47 ± 0.39 °C
- Molar enthalpy of transition or fusion [2]: 0.629 ± 0.0406 kcal/mol
SMILES: Nc1cccnn1 [3-pyridazinamine]
